Assay results published in patent US9174940B2, “TSH receptor antagonizing tetrahydroquinoline compounds” (Merck Sharp & Dohme B.V., priority 2007, dated 2015).

Key:
[1] = biological target: T1, human TSH receptor (Homo sapiens (Human), UniProt P16473); experiment: Antagonist activity against human TSI at the human TSH receptor expressed in CHO cells (CRE-luciferase reporter, rolipram); type: cell-based; conditions: stimulated with 3.16 mg/ml human TSI; 10 μM rolipram; CHO cells cultured 16 h without serum
[2] = biological target: T1, human TSH receptor; experiment: Antagonist activity against bovine TSH at the human TSH receptor in CHO cells under the TSI assay conditions (CRE-luciferase reporter, rolipram); type: cell-based; conditions: stimulated with 18 nM bovine TSH; 10 μM rolipram; CHO cells cultured 16 h without serum
[3] = system: constitutively active human TSHR mutants (Thr632Ile, Ala623Val, Ile568Thr, Asp619Gly and Asp633Glu); experiment: Antagonist activity at constitutively active human TSH receptors expressed in CHO cells (cAMP Alphascreen); type: cell-based; conditions: 10^−6M compound, 10 μM rolipram, transiently transfected CHO cells
Experimental: Antagonist activity of two compounds was tested in Chinese Hamster Ovary (CHO) cells transiently transfected with a plasmid encoding one of the 5 most prevalent, constitutively active human TSHR mutants (Thr632Ile, Ala623Val, Ile568Thr, Asp619Gly and Asp633Glu) (van Sande et al. (1995) J. Clin. Endocrinol. Metabol. 80, 2577-2585), which have been identified in autonomously functioning thyroid nodules causing hyperthyroidism. The cells were incubated with 10^−6M of either the compound of example 35 or example 1 in the presence of 10 μM rolipram. Activity of the TSH receptor mutants was quantified using a Packard cAMP Alphascreen assay.

[4] = biological target: T1, human TSH receptor; experiment: Antagonist activity against TSH at the human TSH receptor expressed in CHO cells (CRE-luciferase reporter); conditions: together with 18 nM bovine TSH
Experimental: Antagonist activity of the compounds against TSH at the human TSH receptor was tested in Chinese Hamster Ovary (CHO) cells stably transfected with a plasmid encoding the human TSH receptor and a second plasmid with a cAMP responsive element (CRE)/promotor directing the expression of a firefly luciferase reporter gene. Binding of bovine TSH to the Gs-coupled TSH receptor will result in an increase of cAMP, which in turn will induce an increased transactivation of the luciferase reporter. Luciferase activity was quantified using a luminescence counter.

T1 sequence (P16473 21-764): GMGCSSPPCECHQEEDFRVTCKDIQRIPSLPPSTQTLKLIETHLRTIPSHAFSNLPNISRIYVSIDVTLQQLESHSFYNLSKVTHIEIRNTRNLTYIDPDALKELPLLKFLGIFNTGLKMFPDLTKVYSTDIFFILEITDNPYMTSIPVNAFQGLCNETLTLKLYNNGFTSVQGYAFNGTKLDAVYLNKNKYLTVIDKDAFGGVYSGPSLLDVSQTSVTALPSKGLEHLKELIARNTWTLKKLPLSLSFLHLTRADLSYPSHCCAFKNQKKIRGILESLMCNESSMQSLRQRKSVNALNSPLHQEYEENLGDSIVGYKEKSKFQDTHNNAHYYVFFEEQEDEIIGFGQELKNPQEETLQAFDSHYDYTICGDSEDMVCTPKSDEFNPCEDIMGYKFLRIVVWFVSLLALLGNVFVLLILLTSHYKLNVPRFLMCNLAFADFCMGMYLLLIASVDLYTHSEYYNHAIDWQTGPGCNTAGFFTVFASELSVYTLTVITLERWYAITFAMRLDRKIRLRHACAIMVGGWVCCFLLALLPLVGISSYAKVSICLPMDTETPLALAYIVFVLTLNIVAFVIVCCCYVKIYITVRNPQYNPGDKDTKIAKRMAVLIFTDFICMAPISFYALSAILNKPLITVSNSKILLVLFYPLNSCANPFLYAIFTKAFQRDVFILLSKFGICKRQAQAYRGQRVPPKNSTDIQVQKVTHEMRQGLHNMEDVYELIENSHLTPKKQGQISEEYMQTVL

Molecule	IC50 [4] [nM]	also measured
CCCCCC(=O)Nc1ccc2c(c1)C(C)(c1ccccc1)CC(C)(C)N2C(C)=O (stereo not drawn) [Example 1, Hexanoic acid (1-acetyl-2,2,4-trimethyl-4-phenyl-1,2,3,4-tetrahydro-quinolin-6-yl)-amide]	< 100	IC50 [1]: 88 nM; IC50 [2]: 368 nM; inhibition of constitutive activity of all 5 receptor mutants [3]: > 80%
CC(=O)N1CCC(C)(c2ccccc2)c2cc(NC(=O)OCc3ccc(F)c(Cl)c3)ccc21 (stereo not drawn) [Example 34, (1-Acetyl-4-methyl-4-phenyl-1,2,3,4-tetrahydro-quinolin-6-yl)-carbamic acid 3-chloro-4-fluoro-benzyl ester]	< 100	
CC(=O)N1c2ccc(NC(=O)c3ccccn3)cc2C(C)(c2ccccc2)CC1(C)C (stereo not drawn) [Example 4, Pyridine-2-carboxylic acid (1-acetyl-2,2,4-trimethyl-4-phenyl-1,2,3,4-tetrahydro-quinolin-6-yl)-amide]	< 100	
(1-Acetyl-4-methyl-4-phenyl-1,2,3,4,4a,8a-hexahydro-quinolin-6-yl)-carbamic acid cyclopentyl ester [Example 32]	< 100	
CC(=O)N1CCC(C)(c2ccccc2)c2cc(NC(=O)OCC3CCC3)ccc21 (stereo not drawn) [Example 29, (1-Acetyl-4-methyl-4-phenyl-1,2,3,4-tetrahydro-quinolin-6-yl)-carbamic acid cyclobutylmethyl ester]	< 100	
CC(=O)N1c2ccc(NC(=O)OCCOc3ccccc3)cc2C(C)(c2ccccc2)CC1(C)C (stereo not drawn) [Example 6, (1-Acetyl-2,2,4-trimethyl-4-phenyl-1,2,3,4-tetrahydro-quinolin-6-yl)-carbamic acid 2-phenoxy-ethyl ester]	< 100	
CC(=O)N1CCC(C)(c2ccccc2)c2cc(NC(=O)OCC3(C)CC3)ccc21 (stereo not drawn) [Example 28, (1-Acetyl-4-methyl-4-phenyl-1,2,3,4-tetrahydro-quinolin-6-yl)-carbamic acid 1-methyl-cyclopropylmethyl ester]	< 100	
CC(=O)N1CCC(C)(c2ccccc2)c2cc(NC(=O)OCCC(C)C)ccc21 (stereo not drawn) [Example 27, (1-Acetyl-4-methyl-4-phenyl-1,2,3,4-tetrahydro-quinolin-6-yl)-carbamic acid 3-methyl-butyl ester]	< 100	
CC(=O)N1CCC(C)(c2ccccc2)c2cc(NC(=O)OC3CCCC3)ccc21 (single isomer, unassigned; (+)) [Example 39]		IC50 [1]: 12 nM; IC50 [2]: 48 nM
CC(=O)N1c2ccc(NC(=O)CCc3cccc(Cl)c3)cc2C(C)(c2ccccc2)CC1(C)C (stereo not drawn) [Example 26, N-(1-Acetyl-2,2,4-trimethyl-4-phenyl-1,2,3,4-tetrahydro-quinolin-6-yl)-3-(3-chloro-phenyl)-propionamide]	< 100	
CC(=O)N1CCC(C)(c2ccccc2)c2cc(NC(=O)OCc3ccc(F)c(Cl)c3)ccc21 (single isomer, unassigned; (+)) [Example 40, (+)-(1-Acetyl-4-methyl-4-phenyl-1,2,3,4-tetrahydro-quinolin-6-yl)-carbamic acid 3-chloro-4-fluoro-benzyl ester]		IC50 [1]: 47 nM; IC50 [2]: 192 nM
CC(=O)N1CCC(C)(c2ccccc2)c2cc(NC(=O)c3ccc(Br)s3)ccc21 (stereo not drawn) [Example 35, 5-Bromo-thiophene-2-carboxylic acid (1-acetyl-4-methyl-4-phenyl-1,2,3,4-tetrahydro-quinolin-6-yl)-amide]		inhibition of constitutive activity of all 5 receptor mutants [3]: > 80%
CCCCOC(=O)Nc1ccc2c(c1)C(C)(c1ccccc1)CC(C)(C)N2C(C)=O (stereo not drawn) [Example 7, (1-Acetyl-2,2,4-trimethyl-4-phenyl-1,2,3,4-tetrahydro-quinolin-6-yl)-carbamic acid butyl ester]	< 100	
